The test system of experiment [1] is cisplatin-induced emesis. The experiment can be described thus: Cisplatin-induced emesis in dogs (antiemetic). In kind it is in vivo, dog. The settings on record: for inhibition in vivo at 1 mg/kg: Canis lupus familiaris, iv, 5 h, read-out: % inhibition of cisplatin-induced emesis. On the procedure: The procedure used to test compounds of the present invention for antiemetic properties is a modification of the method of Gylys et al, Res. Commun, Chem. Pathol. Pharm., 23, 61(1979).
Adult, mongrel, unfasted dogs of both sexes were randomly assigned into treatment groups, with each treatment group consisting of four dogs. On the dosing day all dogs were given cisplatin, 3.0 mg/kg, intravenously. Sixty minutes later, the dogs in the control treatment group were given deionized water, 0.1 ml/kg intravenously. The dogs in the test group were given a test compound at an appropriate dose intravenously. All doses were administered as a solution by means of a syringe and needle, and each dog's emetic episodes were recorded for 5 hours after the administration of cisplatin.

Experiment [2] concerns emesis. The settings on record: reported by Mikhlina et al, Khim-Farmastsevt. Zh. 10 (1976); cited from earlier work.
Experiment [3] deals with dopamine D2 -receptor. The following applies: reported in USSR Pat. No. SU-414-261; cited from earlier work.
For experiment [4], the system named is gastric emptying. The experiment can be described thus: Gastric emptying of a test meal in fasted rats. In kind it is in vivo. The following applies: fasted rat, 9.0 mg/kg IP 30 min before test meal; measured 60 min after the meal. On the procedure:
The procedure used to test compounds of the present invention for gastric motility enhancing activity was that of Droppleman et al, J. Pharmacol. Methods, 4, 227(1980). Each animal was dosed intraperitoneally (9.0 mg/kg) with a test compound or control. After 30 minutes each animal was given 3 ml of a methylcellulose-based test meal formulation. Sixty minutes after administration of the test meal, each animal was killed by cervical dislocation, and the stomach was removed and weighed. The stomach was cut open, rinsed and dried, and reweighed. The difference between the full and empty weights (amount of meal remaining in stomach) was subtracted from the original test meal weight to determine the meal amount emptied from the stomach during the test period.

For experiment [5], the system named is 5-HT (serotonin)-induced contractions of the guinea pig ileum. The experiment can be described thus: Blockade of serotonin-induced contractions of guinea pig ileum (5-HT antagonist activity). The settings on record: 10^-6 M serotonin. The experiment is classed as cell-based.
For experiment [6], the system named is exploratory light/dark behavior. Kind of experiment: Anxiolytic model, two-compartment exploratory light/dark test in mice. The experiment is classed as in vivo. The settings on record: mouse, 10 mg/kg IP, 5 minute period; vehicle control 29. From the text:
The method has been described by Young and Johnson, Soc. Neurosci. Abs., 1988, 14, 207 and is a modification of the procedures described by Costall and Naylor, Brit. J. Pharmacol. 1988, 93, 985-993; and Crawley, Pharmacol. Biochem. and Behav. 1981, 15, 695-699. A two compartment light-dark activity monitoring device (Digiscan Model RXWZCM16, Omnitech Electronics,Inc., Columbus, Ohio) is used. A 90W light source located 30 cm above the box provides light to the apparatus. Behavioral testing was conducted in a sound attenuated, darkened room illuminated with a red light (25W red bulb) only.
Each animal (mouse) received a dose of either the test, reference, or control article. The mouse was placed at the center of the illuminated area and its behavioral activity tallied over a 5 minute period by use of a Digiscan analyzer. Behavioral variables recorded include: the time spent in the lit and dark areas, the number of rearings in the lit and dark areas, the number of locomotor activity counts in the lit and dark areas, the number of transitions between the lit and dark or dark and lit areas, rearing time in the lit and dark areas, the latency to make the first transition from the lit to the dark areas, locomotor time in the lit and dark areas, and resting time in the lit and dark areas. Appropriate statistical analyses for each measure were performed. […]

Regarding “2-(1-Piperidinylmethyl)-1-azabicyclo[2.2.2]oct-3-yl 1-methyl-1H-indole-3-carboxylate cis isomer [XIII (cis isomer)]”, the “% inhibition of cisplatin-induced emesis” value in experiment [1] (dog, 1.0 mg/kg IV given 60 min after cisplatin 3.0 mg/kg IV, emetic episodes recorded for 5 hours) was found to be 34%.

With `COc1ccc(S(N)(=O)=O)cc1C(=O)NC1CN2CCC1CC2` (stereo not drawn) [5-aminosulfonyl-N-(1-azabicyclo-[2.2.2]oct-3-yl)-2-methoxybenzamide], in experiment [2], the anti-emetic activity entry is recorded as “not to have anti-emetic activity”. The neuroleptic activity result in experiment [3] is “neuroleptic activity”. Take `COc1cc(N)c(Cl)cc1C(=O)NC1C2CCN(CC2)C1CN(C)C` (stereo not drawn) [Example I, 4-Amino-5-chloro-N-[2-[(dimethylamino)methyl]-1-azabicyclo[2.2.2]oct-3-yl]-2-methoxy-benzamide]: the inhibition in vivo at 1 mg/kg in experiment [1] is 96%. Further, the “% change in meal emptied” value in experiment [4] was “+36%”. Turning to `COc1cc(N)c(Cl)cc1C(=O)NC1C2CCN(CC2)C1CN1CCCCC1` (stereo not drawn) [Example IV, 4-Amino-5-chloro-2-methoxy-N-[2-(1-piperidinylmethyl)-1-azabicyclo[2.2.2]oct-3-yl]benzamide], in experiment [1], the inhibition in vivo at 1 mg/kg was determined as 94%. For the same compound, in experiment [5], the “pA2 against serotonin-induced contractions” value stood at 6.6. Regarding `CNc1cc(OC)c(C(=O)NC2C3CCN(CC3)C2CN2CCCCC2)cc1Cl` (stereo not drawn) [Example V, 5-Chloro-2-methoxy-4-(methylamino)-N-[2-(1-piperidinylmethyl)-1-azabicyclo[2.2.2]oct-3-yl]benzamide], in experiment [1], the inhibition in vivo at 1 mg/kg turned out to be 99%. For the same compound, the “% Time Spent In Lit Area” value in experiment [6] came to 51%. Regarding `CSCCOc1cc(N)c(Cl)cc1C(=O)NC1C2CCN(CC2)C1CN(C)C` (stereo not drawn) [II, 4-Amino-5-chloro-N-[2-[(dimethylamino)methyl]-1-azabicyclo[2.2.2]oct-3-yl]-2-[2-(methylthio)ethoxy]benzamide], in experiment [1], the inhibition in vivo at 1 mg/kg is 47%. On the same count and under the same terms, with `CNc1cc(OC)c(C(=O)NC2C3CCN(CC3)C2CN(C)C)cc1Cl` (stereo not drawn) [III, 5-Chloro-N-[2-[(dimethylamino)methyl]-1-azabicyclo[2.2.2]oct-3-yl]-2-methoxy-4-(methylamino)benzamide] the figure was 73%. As for `COc1cc(N)c(Cl)cc1C(=O)NC1C2CCN(CC2)C1CN1CCCC1` (stereo not drawn) [VI, 4-Amino-5-chloro-2-methoxy-N-[2-(1-pyrrolidinylmethyl)-1-azabicyclo[2.2.2]oct-3-yl]benzamide], the inhibition in vivo at 1 mg/kg in experiment [1] stood at 87%. In experiment [4], the “% change in meal emptied” value is on record as “+33%”. `CNc1cc(OC)c(C(=O)NC2C3CCN(CC3)C2CN2CCCC2)cc1Cl` (stereo not drawn) [VII, 5-Chloro-2-methoxy-4-(methylamino)-N-[2-(1-pyrrolidinylmethyl)-1-azabicyclo[2.2.2]oct-3-yl]benzamide]: the inhibition in vivo at 1 mg/kg in experiment [1] was 87%.

Regarding `COc1cc(N)c(Cl)cc1C(=O)NC1C2CCN(CC2)C1CN1CCOCC1` (stereo not drawn) [XI, 4-Amino-5-chloro-2-methoxy-N-[2-(4-morpholinylmethyl)-1-azabicyclo[2.2.2]oct-3-yl]benzamide], the inhibition in vivo at 1 mg/kg in experiment [1] was found to be 21%.

(Values after patent US5273972A, “[(2-diakylaminomethyl)-3-quinuclidinyl]-benzamides and benzoates” (priority 1992, dated 1993).)
